Where two headings read alike, the source gives them in different places.

The target of assay [1] is T1, human orexin-2 receptor (Homo sapiens (Human), UniProt O43614). Nature of the assay: radioligand binding assay, hOX2R BIND. On the procedure: (§1) In a typical experiment the OX1 and OX2 receptor antagonistic activity of the compounds of the present invention was determined in accordance with the following experimental method. For intracellular calcium measurements, Chinese hamster ovary (CHO) cells expressing the rat orexin-1 receptor or the human orexin-2 receptor, are grown in Iscove's modified DMEM containing 2 mM L-glutamine, […], 1% hypoxanthine-thymidine supplement, 100 U/ml penicillin, 100 μg/ml streptomycin and 10% heat-inactivated fetal calf serum (FCS). The cells are seeded at 20,000 cells/well into Becton-Dickinson black 384-well clear bottom sterile plates coated with poly-D-lysine. All reagents were from GIBCO-Invitrogen Corp. The seeded plates are incubated overnight at 37° C. and 5% CO2. Ala-6,12 human orexin-A as the agonist is prepared as a 1 mM stock solution in 1% bovine serum albumin (BSA) and diluted in assay buffer (HBSS containing 20 mM HEPES, 0.1% BSA and 2.5 mM probenecid, pH7.4) for use in the assay at a final concentration of 70 pM. Test compounds are prepared as 10 mM stock solution in DMSO, then diluted in 384-well plates, first in DMSO, then assay buffer. On the day of the assay, cells are washed 3 times with 100 μl assay buffer and then incubated for 60 min (37° C., 5% CO2) in 60 μl assay buffer containing 1 μM Fluo-4AM ester, 0.02% pluronic acid, and 1% BSA. The dye loading solution is then aspirated and cells are washed 3 times with 100 μl assay buffer. 30 μl of that same buffer is left in each well. Within the Fluorescent Imaging Plate Reader (FLIPR, Molecular Devices), test compounds are added to the plate in a volume of 25 μl, incubated for 5 min and finally 25 μl of agonist is added. Fluorescence is measured for each well at 1 second intervals for 5 minutes and the height of each fluorescence peak is compared to the height of the fluorescence peak induced by 70 pM Ala-6,12 orexin-A with buffer in place of antagonist. […] Alternatively, compound potency can be assessed by a radioligand binding assay (described in Bergman et. al. Bioorg. Med. Chem. Lett. 2008, 18, 1425-1430) in which the inhibition constant (Ki) is determined in membranes prepared from CHO cells expressing either the OX1 or OX2 receptor. The intrinsic orexin receptor antagonist activity of a compound which may be used in the present invention may be determined by these assays.
T1 sequence (O43614 whole entry): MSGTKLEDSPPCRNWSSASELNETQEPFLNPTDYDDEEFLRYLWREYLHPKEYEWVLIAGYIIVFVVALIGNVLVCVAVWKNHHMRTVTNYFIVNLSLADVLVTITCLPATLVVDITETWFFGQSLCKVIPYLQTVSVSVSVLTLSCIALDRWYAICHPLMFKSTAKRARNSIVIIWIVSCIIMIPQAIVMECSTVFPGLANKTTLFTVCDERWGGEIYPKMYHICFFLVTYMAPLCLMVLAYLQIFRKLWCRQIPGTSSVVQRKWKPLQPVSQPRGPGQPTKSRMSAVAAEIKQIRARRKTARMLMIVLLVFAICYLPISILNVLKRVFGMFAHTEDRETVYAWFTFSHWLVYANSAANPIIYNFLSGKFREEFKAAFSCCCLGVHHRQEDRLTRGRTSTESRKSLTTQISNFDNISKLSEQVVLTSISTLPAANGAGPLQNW

Assay [2] deals with T1, human orexin-2 receptor. The assay can be described thus: FLIPR Ca2+ Flux Assay, hOX2R FLIPR. The following applies: CHO cells, 70 pM Ala-6,12 human orexin-A agonist. The assay is classed as cell-based. On the procedure: as §1
(In general: Calcium assays in cells follow changes in intracellular calcium, usually with a dye or a luminescent sensor.)

The target in assay [3] is T2, hOX1R (orexin-1 receptor) (Rattus norvegicus, UniProt P56718). The assay can be described thus: FLIPR Ca2+ Flux Assay, hOX1R FLIPR. The assay is classed as cell-based. The following applies: CHO cells, 70 pM Ala-6,12 human orexin-A agonist. As for the experimental part: as §1
T2 sequence (P56718 whole entry, looked up): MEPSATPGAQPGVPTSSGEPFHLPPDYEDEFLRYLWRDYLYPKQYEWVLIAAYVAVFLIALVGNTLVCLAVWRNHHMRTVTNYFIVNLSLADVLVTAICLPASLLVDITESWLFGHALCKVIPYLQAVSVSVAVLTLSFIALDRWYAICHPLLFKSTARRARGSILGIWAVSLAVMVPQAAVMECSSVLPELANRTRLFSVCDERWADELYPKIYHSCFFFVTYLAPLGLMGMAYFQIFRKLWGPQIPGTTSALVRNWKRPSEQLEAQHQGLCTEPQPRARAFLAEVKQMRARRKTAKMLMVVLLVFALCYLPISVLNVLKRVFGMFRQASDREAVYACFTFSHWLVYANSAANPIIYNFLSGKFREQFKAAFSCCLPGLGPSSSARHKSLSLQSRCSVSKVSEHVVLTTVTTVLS
The target in assay [4] is T2, hOX1R (orexin-1 receptor). Nature of the assay: radioligand binding assay, hOX1R BIND. As to conditions: membranes from CHO cells expressing OX1 receptor; read-out: hOX1R BIND hKi. On the procedure:
In a typical experiment the OX1 and OX2 receptor antagonistic activity of the compounds of the present invention was determined in accordance with the following experimental method. For intracellular calcium measurements, Chinese hamster ovary (CHO) cells expressing the rat orexin-1 receptor or the human orexin-2 receptor, are grown in Iscove's modified DMEM containing 2 mM L-glutamine, […], 1% hypoxanthine-thymidine supplement, 100 U/ml penicillin, 100 μg/ml streptomycin and 10% heat-inactivated fetal calf serum (FCS). The cells are seeded at 20,000 cells/well into Becton-Dickinson black 384-well clear bottom sterile plates coated with poly-D-lysine. […] Within the Fluorescent Imaging Plate Reader (FLIPR, Molecular Devices), test compounds are added to the plate in a volume of 25 μl, incubated for 5 min and finally 25 μl of agonist is added. Fluorescence is measured for each well at 1 second intervals for 5 minutes and the height of each fluorescence peak is compared to the height of the fluorescence peak induced by 70 pM Ala-6,12 orexin-A with buffer in place of antagonist. […] Alternatively, compound potency can be assessed by a radioligand binding assay (described in Bergman et. al. Bioorg. Med. Chem. Lett. 2008, 18, 1425-1430) in which the inhibition constant (Ki) is determined in membranes prepared from CHO cells expressing either the OX1 or OX2 receptor. […]

The mark [5] stands for this setting: membranes from CHO cells expressing OX2 receptor, read-out: hOX2R BIND hKi.

Regarding `COC(=O)c1c(C#N)ccnc1O[C@@H]1CC[C@@H](C)N(C(=O)c2cc(F)ccc2-c2nc(C)no2)C1` [Example 8, methyl 4-cyano-2-{[(3R,6R)-1-{[5-fluoro-2-(3-methyl-1,2,4-oxadiazol-5-yl)phenyl]carbonyl}-6-methylpiperidin-3-yl]oxy}pyridine-3-carboxylate], the Ki in assay [1] (setting [5]) is 0.44 nM. Also, the IC50 (as a rule, the concentration that gives 50% inhibition) came out at 24.9 nM in assay [2] and 1470 nM in assay [3].
In assay [1], `COC(=O)c1c(C#N)ccnc1O[C@@H]1CC[C@@H](C)N(C(=O)c2ccccc2-n2ncnn2)C1` [Example 25] registered a Ki of 0.76 nM. Moreover, the half-maximal inhibitory concentration (IC50) is 7 nM in assay [2] and 1290 nM in assay [3].
`COC(=O)c1c(C#N)ccnc1O[C@@H]1CC[C@@H](C)N(C(=O)c2cccc(F)c2-n2nccn2)C1` [Example 4, methyl 4-cyano-2-{[(3R,6R)-1-{[3-fluoro-2-(2H-1,2,3-triazol-2-yl)phenyl]carbonyl}-6-methylpiperidin-3-yl]oxy}pyridine-3-carboxylate]: the Ki in assay [1] (setting [5]) worked out at 0.44 nM. The IC50 in assay [2] is 15.7 nM; in assay [3] it was 1020 nM.
The matching figures for `COC(=O)c1c(C#N)ccnc1O[C@@H]1CC[C@@H](C)N(C(=O)c2ccccc2-n2nccn2)C1` [Example 1, Methyl 4-cyano-2-{[(3R,6R)-6-methyl-1-{[2-(2H-1,2,3-triazol-2-yl)phenyl]carbonyl}piperidin-3-yl]oxy}pyridine-3-carboxylate]: 0.46 nM, 19 nM and 749 nM.
As for `COC(=O)c1c(C#N)ccnc1O[C@@H]1CC[C@@H](C)N(C(=O)c2cccc(F)c2-c2noc(C)n2)C1` [Example 11, methyl 4-cyano-2-{[(3R,6R)-1-{[3-fluoro-2-(5-methyl-1,2,4-oxadiazol-3-yl)phenyl]carbonyl}-6-methylpiperidin-3-yl]oxy}pyridine-3-carboxylate], in assay [1] (setting [5]), the Ki stood at 0.5 nM. The half-maximal inhibitory concentration (IC50) in assay [2] came to 16.2 nM; in assay [3], 956 nM.
Regarding `COC(=O)c1c(C#N)ccnc1O[C@@H]1CCC(C)N(C(=O)c2ccccc2-c2ncccn2)C1` (stereo partly shown) [Example 20], the Ki was determined as 0.54 nM in assay [1] (setting [5]) and 30.8 nM in assay [4]. The IC50 in assay [2] amounted to 23.8 nM; in assay [3] it was 417 nM.

The values above are taken from patent US9586950B2 (MERCK SHARP & DOHME CORP., priority 2012, dated 2017).
